Results as given in US5859188A, “Method for discovering novel anthelmintic compounds” (priority 1997, dated 1999).
Ends that are not written are not given here. Peptide text beside a SMILES is read from it. * marks the point of attachment. X1 = CC(C)C[C@@H](CN[C@@H](CCCNC(=N)N)C(=O)N[C@@H](Cc1ccccc1)C(N)=O)N*

Experiments:
[1] = biological target: receptor preparation (membrane fraction of Ascaris suum body wall muscle), AF2 binding sites; experiment: Displacement of radioactive AF2 ([125I]AF2) in a receptor binding assay
Experimental: Adult female Ascaris suum, swine intestinal parasites, are collected in an abattoir after their removal from the intestine using pressurized water. Healthy specimens over 25 cm are selected, rinsed and placed in Ascaris Ringer's Solution (ARS: 4 mM NaCl, 5.9 mM CaCl2, 4.9 mM MgCl2, 5 mM Tris (C4 H11 NO3), 125 mM NaC2 H3 O2, 24.5 mM KCl, pH=7.4) at 37° C. Specimens are placed in a thermos filled with 37C Ascaris Ringer's solution and immediately air shipped to our laboratory. Upon arrival they are placed in fresh ARS (changed daily) and maintained at 37° C. for up to 3-4 days prior to use.
Ascaris suum body wall tissue (muscle) is dissected out by pinning each specimen in a dissection tray, opening the worm along its entire length at the lateral line with a scalpel, removing the intestine and ovaries and then scraping the muscle from the cuticle. One worm yields approximately 1.0 g tissue. Tissue collected is flash frozen in liquid nitrogen and stored at -80° C. until needed.
Membrane suspension for the binding assay is prepared as follows. […]
Each replicate is one well of a standard 96-well plate and has a volume of 200 μl containing 15 ug protein (preparation described above). […] The plate is shaken on a rotary shaker for 2 hours and then counted on a Top Count® scintillation counter. […]

A. suum muscle strips = settings: cited from earlier work; for Threshold Concentration (ND class): highest concentration 10 μM; for Threshold Concentration: lowest tested concentration that detectably altered tension and/or contractile activity in at least half the strips
[2] = test system: innervated Ascaris suum muscle preparation; experiment: Potency evaluation bioassay: muscle tension and contractile frequency of innervated Ascaris suum muscle preparation; settings: for Tension: 1 nM peptide, mean
Experimental: AF2 and iodinated AF2 were evaluated in a bioassay using an innervated Ascaris suum muscle preparation and potency was estimated by measuring the physiological effects of the peptides on A. suum muscle tension and contractile frequency.
An adult female was bisected transversely just anterior to the oviduct. A 2 cm segment was obtained anterior from the initial cut and that section was placed immediately under 37° C. medium in a dissection chamber. Two muscle strips were then prepared from each segment. Strips were prepared by cutting the segment longitudinally along one lateral line, removing the gut and then severing the opposite lateral line. Steel wires, 4 cm long, 0.25 mm diameter, with terminal sharpened hooks, were inserted through the muscle strip approximately 3 mm and centered from each end. These hooks were used to suspend the muscle strip between an isometric force transducer and a stationary holdfast in a 37° C. water jacketed incubation chamber filled with suppressive Ascaris Ringer's Solution constantly bubbled with N2. The transducer was connected to a Gould chart recorder via a Gould Universal amplifier.
The muscle tension on each preparation was "normalized" to zero five minutes before the addition of a test compound or vehicle. Compounds or vehicles were introduced from stock solutions and assayed at a final concentration of 1 nM in replicate (n=6). […] Inhibition is manifested as a drop in baseline tension (compared to control), while excitation is defined as a marked rise in baseline tension, often superimposed with transient muscle contractions (spiking). In order to estimate the net change in muscle tension of these preparations, the midpoint of the spike was estimated visually. Muscle tension data were analyzed by analysis of variance.

Ascaris suum tissues = settings: tritium on leucine moiety; cited from earlier work

Molecule	Threshold Concentration (ND class) (A. suum muscle strips)	Threshold Concentration (A. suum muscle strips) [µM]	also measured
CC(C)C[C@@H](CN[C@@H](CCCNC(=N)N)C(=O)N[C@@H](Cc1ccccc1)C(N)=O)NC(=O)[C@H](Cc1ccc(O)cc1)NC(=O)[C@H](CCC(=O)O)NC(=O)[C@H](Cc1c[nH]cn1)NC(=O)[C@@H](N)CCCCN [KHEYL*RFamide (reduced bond), KHEYL*RFamide] (H-KHEY-X1)			IC50 ([1]; displacement of radioactive AF2): 0.02 µM
ANEFIRF-NH2	ND ("ND" means no detectable effect at 10 μM)		
FIRFamide	ND ("ND" means no detectable effect at 10 μM)		
KAEFIRF-NH2	ND ("ND" means no detectable effect at 10 μM)		
KNAFIRF-NH2		0.1	
KNEAIRF-NH2		3.2	
KNEFARF-NH2		10	
KNEFIAF-NH2		10	
KNEFIRA-NH2	ND ("ND" means no detectable effect at 10 μM)		
KNEYIRF-NH2		3.2	
Lys-His-Glu-Tyr^--I -Leu-Arg-Phe-amide [Iodo AF2]			specific binding ([1]; radioligand in current embodiment of binding assay): > 80%; type of response of muscle tension ([2]; 1 nM): biphasic responses (short term inhibition followed by long term excitation); Tension ([2]; 5 min after peptide addition): -430 mg; Tension ([2]; 15 min after peptide addition): -403 mg; Tension ([2]; 30 min after peptide addition): -237 mg; Tension ([2]; 60 min after peptide addition): -437 mg; Spike amplitude ([2]; 1 nM, FIG. 1): significant increase
NEFIRF-NH2	ND ("ND" means no detectable effect at 10 μM)		
[^3 H]PF1: PF1 (Ser-Asp-Pro-Asn-Phe-Leu-Arg-Phe-NH2 ; SDPNFLRFamide) radiolabelled by exchanging a tritium atom for a hydrogen on the leucine moiety (SDPNFLRF-NH2; also: tritium label on Leu6)			specific binding (Ascaris suum tissues): 40%
